This is an account of results in ChEMBL document CHEMBL1135179, “Synthesis of C-8 alkylamino substituted pyrrolo[2,1-c][1,4]benzodiazepines as potential anti-cancer agents” (2002).

Format in all cases: functional
The test system of assay [1] is leukaemia cell line. As to the kind of experiment: Compound was tested for 50% lethality in leukemia cancer cell lines. Conditions: Homo sapiens, read-out: Log LC50 (the source's name) (converted).
In assay [2] the test system is Panel renal (Carcinoma cell lines). As to the kind of experiment: Compound was tested for 50% lethality in Renal cancer cell lines. To be noted: Homo sapiens, read-out: Log LC50 (the source's name) (converted).
Assay [3] relates to Panel CNS (Carcinoma cell lines). As to the kind of experiment: Compound was tested for 50% lethality in CNS cancer cell lines. Conditions: Homo sapiens, read-out: Log LC50 (the source's name) (converted).
Assay [4] deals with Panel breast (Carcinoma cell lines). As to the kind of experiment: Compound was tested for 50% lethality in Breast cancer cell lines. Conditions: Homo sapiens, read-out: Log LC50 (the source's name) (converted).
In assay [5] the test system is Panel colon (Carcinoma cell lines). As to the kind of experiment: Compound was tested for 50% lethality in Colon cancer cell lines. To be noted: Homo sapiens, read-out: Log LC50 (the source's name) (converted).
Assay [6] concerns NSCLC. As to the kind of experiment: Compound was tested for 50% lethality in Non-small-cell lung cancer cell lines. Conditions: Homo sapiens, read-out: Log LC50 (the source's name) (converted).
Assay [7] relates to Panel prostate (Carcinoma cell lines). As to the kind of experiment: Compound was tested for 50% lethality in Prostate cancer cell lines. To be noted: Homo sapiens, read-out: Log LC50 (converted).
Assay [8] relates to Panel ovarian (Carcinoma cell lines). As to the kind of experiment: Compound was tested for 50% lethality in Ovarian cancer cell lines. Conditions: Homo sapiens, read-out: Log LC50 (the source's name) (converted).
For assay [9], the system named is Panel melanoma (Carcinoma cell lines). As to the kind of experiment: Compound was tested for 50% lethality in Melanoma cancer cell lines. Conditions: Homo sapiens, read-out: Log LC50 (the source's name) (converted).

For `COc1cc2c(cc1OCCCN1CCOCC1)N=C[C@@H]1CCCN1C2=O`, the CC50 in assay [1] was more than 100 µM; in [2], 97.7 µM; in assay [3], 95.5 µM; in [4], 97.7 µM; in assay [5], 66.1 µM; in assay [6], 95.5 µM. Also, the CC50 is more than 100 µM in assay [7], more than 100 µM in assay [8] and 87.1 µM in [9].
With `CCN(CC)CCCOc1cc2c(cc1OC)C(=O)N1CCC[C@H]1C=N2`, the CC50 in [1] is more than 100 µM; in [2] it was more than 100 µM; in assay [3], more than 100 µM; in assay [4], more than 100 µM; in assay [5], 87.1 µM; in assay [6] it was more than 100 µM. The CC50 is more than 100 µM in assay [7], more than 100 µM in [8] and 93.3 µM in assay [9].
Regarding `COc1cc2c(cc1OCCCN1CCN(C)CC1)N=C[C@@H]1CCCN1C2=O`, the CC50 was 52.5 µM in assay [1]; 56.2 µM in [2]; 64.6 µM in [3]; 64.6 µM in [4]; 55 µM in [5]; 67.6 µM in [6]. Also, the CC50 in assay [7] was more than 100 µM; in [8] it was 61.7 µM; in assay [9] it was 30.9 µM.
